Data set [1] is described as follows: Cytotoxicity in PBMCs by MTS (secondary cytotoxicity assay, high-test concentration 25 μM). The class given is cell-based. The settings on record: human PBMCs, MTS cell viability; modified peptides conjugated with HSA; FB005, FB006 unmodified; read-out: TC50 (50% cytotoxicity drug concentration). Here is the method:
For the standard PBMC assay, PHA-P stimulated cells from at least two normal donors were pooled, diluted in fresh medium to a final concentration of 1×10^6 cells/mL, and plated in the interior wells of a 96 well round bottom microplate at 50 μL/well (5×10^4 cells/well). Each plate contains virus/cell control wells (cells plus virus), experimental wells (drug plus cells plus virus) and compound control wells ([…], necessary for MTS monitoring of cytotoxicity). Since HIV-1 is not cytopathic to PBMCs, this allows the use of the same assay plate for both antiviral activity and cytotoxicity measurements. Test drug dilutions were prepared at a 2× concentration in microtiter tubes and 100 μL of each concentration was placed in appropriate wells using the standard format. 50 μL of a predetermined dilution of virus stock was placed in each test well (final MOI≈0.1). The PBMC cultures were maintained for seven days following infection at 37° C., 5% CO2, after which cell-free supernatant samples were collected for analysis of reverse transcriptase activity and/or HIV p24 content. Following removal of supernatant samples, compound cytotoxicity was measured by addition of MTS to the plates for determination of cell viability. Wells were also examined microscopically and any abnormalities noted. […]

The subject of data set [2] is HIV-1IIIB. Nature of the data set: Cellular anti-HIV assay in fresh human PBMC cultures (reverse transcriptase activity and/or p24 readout). The class given is cell-based. The method, then: The four modified peptides FB006M, FB007M, FB010M, and FB010KM were conjugated to human serum albumin (HSA) by mixing prior to the antiviral test. The results appear in Table 8 below, where IC50 value is the 50% viral inhibition drug concentration, and TC50 value is the 50% cytotoxicity drug concentration.
Pretitered aliquots of HIV-1IIIB was removed from the freezer (−80° C.) and thawed rapidly to room temperature in a biological safety cabinet immediately before use.
Fresh human PBMCs were isolated from screened donors, seronegative for HIV and HBV (Interstate Blood Bank, Inc.; Memphis, Tenn.). Cells were pelleted/washed 2-3 times by low speed centrifugation and resuspension in PBS to remove contaminating platelets. The Leukophoresed blood was then diluted 1:1 with Dulbecco's phosphate buffered saline (PBS) and layered over 14 mL of Lymphocyte Separation Medium in a 50 mL centrifuge tube and then centrifuged for 30 minutes at 600×g. Banded PBMCs were gently aspirated from the resulting interface and subsequently washed 2× with PBS by low speed centrifugation. After the final wash, cells were enumerated by trypan blue exclusion and re-suspended at 1×10^7 cells/mL in RPMI 1640 supplemented with 15% Fetal Bovine Serum (FBS), 2 mM L-glutamine, 4 μg/mL Phytohemagglutinin (PHA-P, Sigma). The cells were allowed to incubate for 48-72 hours at 37° C. After incubation, PBMCs were centrifuged and resuspended in RPMI 1640 with 15% FBS, 2 mM L-glutamine, 100 U/mL penicillin, 100 μg/mL streptomycin, 10 μg/mL gentamycin, and 20 U/mL recombinant human IL-2 (R&D Systems, Inc). […]
For the standard PBMC assay, PHA-P stimulated cells from at least two normal donors were pooled, diluted in fresh medium to a final concentration of 1×10^6 cells/mL, and plated in the interior wells of a 96 well round bottom microplate at 50 μL/well (5×10^4 cells/well). […] Following removal of supernatant samples, compound cytotoxicity was measured by addition of MTS to the plates for determination of cell viability. […]

The mark [3] stands for this setting: HIV-1IIIB in fresh human PBMCs, seven days, FB006M, FB007M, FB010M, FB010KM conjugated with HSA prior to test, FB005, FB006 unmodified peptide, read-out: IC50 (50% viral inhibition drug concentration).

Where two headings read alike, the source gives them in different places.

Consider “Ac-SLEQIWNNMTWEEWDREINNYTELIHELIEESQNQQEKNEQELL-NH2 [FB005]”, for which the CC50 at 7 days in data set [1] stood at 14300 nM. The IC50 in data set [2] (setting [3]) is 0.93 nM.
On to “Ac-WEEWDREINNYTKLIHELIEESQNQQEKNEQELL-NH2 [FB006]”, for which the CC50 at 7 days in data set [1] worked out at 15900 nM. The IC50 amounted to 1.4 nM in data set [2] (FB006M and FB007M linked to serum albumin, read-out: IC50 (drug concentration for achieving 50% viral inhibition)); 1.41 nM in data set [2] (setting [3]).

The values are drawn from patent publication US8470527B2, “Method of inhibiting HIV-1 replication by administering modified GP41 C34 peptide derivatives with enhanced pharmacological properties” (Frontier Biotechnologies, Co., Ltd., priority 2002, dated 2013).
